Results as given in PubChem BioAssay (NCI).
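Following 48 hours of exposure in 96-well plates, responses at five concentrations were used to interpolate endpoints linearly. TGI is the concentration that stops growth completely.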

Experiments:
Test in all cases: DTP human tumour cell line panel, 48 h
[1] = tested on: CAKI-1 renal
[2] = tested on: HCT-116 colon
[3] = tested on: HOP-62 NSCLC
[4] = tested on: LOX IMVI melanoma
[5] = tested on: NCI-H23 lung
[6] = tested on: NCI-H460 lung
[7] = tested on: OVCAR-3 ovarian
[8] = tested on: PC-3 prostate
[9] = tested on: SK-MEL-2 melanoma
[10] = tested on: SK-MEL-28 melanoma
[11] = tested on: SR leukemia
[12] = tested on: T-47D breast

| SMILES | TGI [1] | TGI [2] | TGI [3] | TGI [4] | TGI [5] | TGI [6] | TGI [7] | TGI [8] | TGI [9] | TGI [10] | TGI [11] | TGI [12] |
| --- | --- | --- | --- | --- | --- | --- | --- | --- | --- | --- | --- | --- |
| CCOC(=O)c1c(SCCN2CCCC2)n(-c2ccccc2)c(=S)n(-c2ccccc2)c1=O | 5.23 µM | 8.39 µM | 36.6 µM | 3.79 µM | 27.4 µM | 12.3 µM | 3.35 µM | 3.14 µM | 28.4 µM | 7.48 µM | 2.05 µM | 9.41 µM |
| COc1ccc(NC2Oc3cc4c(cc3C(c3cc(OC)c(OC)c(OC)c3)C2C)OCO4)cc1 (stereo not given) | > 91.5 µM | 19.1 µM | 6.98 µM | > 100 µM | > 89.7 µM | > 48.5 µM | > 100 µM | > 100 µM | > 100 µM | > 100 µM |  |  |
| C=CC/C(C(=O)OC)=C(/C(=O)OC)N(CCC)CCC | > 100 µM | > 100 µM | > 100 µM | > 100 µM | > 100 µM | > 100 µM | > 100 µM | > 100 µM | > 100 µM | > 100 µM | 55.3 µM | > 100 µM |
| CC(=O)CC(=O)c1cc2c(=O)oc(C)cc2oc1=O | > 37.5 µM | > 37.5 µM | > 37.5 µM |  | > 37.5 µM | > 37.5 µM | > 37.5 µM | > 37.5 µM | > 37.5 µM | > 37.5 µM | > 37.5 µM |  |
| O=C1CC(c2ccc([N+](=O)[O-])cc2)C2(C(=O)NC(=S)NC2=O)C(c2ccc([N+](=O)[O-])cc2)C1 (stereo not given) |  | 32.4 µM | 56 µM | 39.4 µM | 64.1 µM | 42.2 µM | 76.1 µM | > 100 µM |  | > 100 µM | > 100 µM | 96.3 µM |
| O=C(OCc1ccccc1)OOC(=O)OCc1ccccc1 | > 100 µM | > 100 µM | > 100 µM |  | > 100 µM | > 100 µM | > 100 µM |  | > 100 µM | > 100 µM | > 100 µM |  |
| CC(C)(CO)N1C(=O)c2ccccc2C1(O)c1ccc(Cl)cc1 (stereo not given) | > 100 µM | > 100 µM | > 100 µM |  | > 100 µM | > 100 µM | > 100 µM | > 100 µM | > 100 µM | > 100 µM |  | > 100 µM |
| CC(=O)/C(=C/n1c(=S)sc2ccccc21)C(=O)Nc1ccccc1C | > 100 µM | > 100 µM | > 100 µM | > 100 µM | > 100 µM | > 100 µM | > 100 µM |  | > 100 µM | > 100 µM |  | > 100 µM |
| Nc1ncnc2c1ncn2C(=O)NC12CC3CC(CC(C3)C1)C2 | > 100 µM | > 100 µM | > 100 µM | > 100 µM | > 100 µM | > 100 µM | > 100 µM | > 100 µM | > 100 µM | > 100 µM |  | > 100 µM |
| CN(C)c1ccc(/C(Br)=C2\OC(=O)c3ccccc32)cc1 | > 100 µM | > 100 µM | > 100 µM | > 100 µM | > 100 µM | > 100 µM |  | > 100 µM | > 100 µM | > 100 µM | > 100 µM | > 100 µM |
| COc1ccc(CNc2nc3ccc(C(F)(F)F)cc3nc2-c2ccccc2)cc1OC |  | > 100 µM | > 100 µM | > 100 µM | > 100 µM | > 100 µM | > 100 µM |  | > 100 µM | > 100 µM | > 100 µM |  |
| OCc1ccccc1C1CSCSC1 |  | > 100 µM |  | > 100 µM |  | > 100 µM | > 100 µM |  | > 100 µM | > 100 µM |  |  |
| CC1CC(C#N)=C2NCCCCN2C1=O (stereo not given) | > 100 µM |  | > 100 µM | > 100 µM | > 100 µM | > 100 µM | > 100 µM | > 100 µM | > 100 µM | > 100 µM | > 100 µM | > 100 µM |
| C[C@@H]1C[C@H](O)[C@]2(O)O[C@@H]3C[C@@]4(C=O)[C@@H](CC=C5[C@@H]4CC[C@]4(C)[C@@H](C6=CC(=O)OC6)CC[C@]54O)C[C@H]3O[C@@H]2O1 | 0.0722 µM | 0.036 µM | 0.0319 µM |  | 0.0207 µM | 0.0711 µM | 0.308 µM |  |  |  |  | 0.325 µM |
| O=C(CCc1ccc(O)cc1)c1c(O)cc(O)cc1OC1OC(CO)C(O)C(O)C1O (stereo not given) | > 100 µM | > 100 µM | > 100 µM | > 100 µM | > 100 µM |  | > 100 µM | > 100 µM | > 100 µM | > 100 µM |  | > 100 µM |
| c1ccc(N=c2snc(-c3ccccc3)s2)cc1 | > 100 µM | > 100 µM | > 100 µM |  |  | > 100 µM |  |  | > 100 µM | > 100 µM | > 100 µM |  |
| O=C1NC(=S)NC(=O)C1C(c1ccccc1[N+](=O)[O-])C1C(=O)NC(=S)NC1=O | > 100 µM | > 100 µM | > 100 µM | > 100 µM | > 100 µM | > 100 µM | > 100 µM | > 100 µM | > 100 µM | > 100 µM |  | > 100 µM |
| O=c1nc2c(c(-c3cccc(Cl)c3)[nH]1)COC/C2=C\c1cccc(Cl)c1 | > 100 µM | > 100 µM | > 100 µM | > 100 µM | > 100 µM | > 100 µM | > 100 µM | > 100 µM | > 100 µM |  | > 100 µM | > 100 µM |
| CN1C(=O)CN(NC(=O)C2=C(O)c3ccc(Br)cc3S(=O)(=O)N2)C1=S | > 100 µM | > 100 µM | > 100 µM | > 100 µM | > 100 µM | > 100 µM |  | > 100 µM | > 100 µM | > 100 µM | > 100 µM | > 100 µM |
| C[C@]12CC/C(=N\O)C=C1CC[C@@H]1[C@@H]2CC[C@]2(C)C(=N/O)/C(=C/c3cccnc3)C[C@@H]12 |  | > 100 µM | 85.5 µM | 9.74 µM | > 100 µM | 22.7 µM |  | > 100 µM | 97.8 µM | 53.1 µM |  |  |
| CCn1c(=O)c2c3cc(O)ccc3oc2c2ccc(O)cc21 | > 100 µM |  | > 100 µM |  | > 100 µM | > 100 µM | > 100 µM | > 100 µM |  | > 100 µM | 63.5 µM | 36.5 µM |
